The test system of series [1] is NF-κB. Kind of series: TNF-α induced NF-κB luciferase reporter assay in C2C12 myotubes. The class given is cell-based. As to conditions: 0.0001-10μM, TNF-α 10ng/ml. For orientation: In a reporter assay the amount or activity of a reporter protein is the signal.
The subject of the next series is C2C12 myotubes. Kind of series: MTT cell viability assay in C2C12 myotubes. Particulars: for Myotubes % Cell Viability: MTT at respective IC50 concentration, relative to untreated controls.
The test system of series [2] is NF-κB. Kind of series: TNF-α induced NF-κB luciferase reporter assay in C2C12 myoblasts. Particulars: for NF-κB inhibition in myoblasts: 0.0001-10μM, TNF-α 10ng/ml; for Luciferase activity (reduced to): 1μg/ml, myoblasts. The class given is cell-based.
For series [3] the following is noted: 10mg/kg; cited from earlier work.
A short description of series [4]: MTT cell viability assay in C2C12 myotubes. As to conditions: mouse. In general terms: Tetrazolium assays rely on reduction of a dye to a coloured formazan, in cell work by metabolically active cells.
For a further series, the system named is NF-κB p65. Kind of series: Immunostaining for NF-κB p65 nuclear translocation in C2C12 myoblasts. The class given is cell-based. As to conditions: drug 1μg/ml 24 hours, then TNF-α 24 hours.
Series [5] concerns NF-κB. As to conditions: read-out: IC50, LPS-induced NF-κB; macrophage cell line; cited from earlier work.
The nature of series [6]: MTT cell viability assay in C2C12 myoblasts. As to conditions: mouse.
The conditions of series [7]: mdx mouse; 5mg/kg; cited from earlier work.
For series [8], the system named is NF-κB. Particulars: read-out: IC50, NF-κB inhibition; macrophage reporter cell line; cited from earlier work.
For series [9] the following is noted: mdx model; 1.2mg/kg; cited from earlier work.
The next series is described as follows: in vitro. Particulars: mouse.
Series [10] deals with NF-κB. Particulars: primary human peripheral blood and mononuclear cells; cited from earlier work.
Another series concerns C2C12 myoblasts. Put plainly: MTT cell viability assay in C2C12 myoblasts. As to conditions: MTT at respective IC50 concentration; relative to untreated controls.
[11] abbreviates: Myoblast, read-out: NF-κB inhibition luciferase activity, Mean ± SD.

Entries after “also recorded” stand apart in the source; their conditions may differ. Read-outs that look alike come from different tables or passages of the source.

As usually defined, the viability is a read-out of living cells in per cent, often relative to untreated cells. As a reminder, the IC50 is the concentration that gives 50% inhibition. By inhibition is commonly meant the relative decrease from the control value, in per cent.

With `CC(C)(C)c1ccc(S(=O)(=O)/C=C/C#N)cc1` [Bay 11-7085], the “NF-κB inhibition in myotubes (words)” value with NF-κB [1] (listed as BAY 11-7085) is on record as “no inhibition”; with NF-κB [1] (listed as Bay-11 7085), “exhibited NF-κB inhibition”. Also, the “Myotubes % Cell Viability” value with C2C12 myotubes is 87.2%. For the same compound, the “NF-κB inhibition in myoblasts” value with NF-κB [2] was “but not myoblasts”.
For the compound `CC1=C(O)C(=O)C=C2C1=CC=C1[C@@]2(C)CC[C@@]2(C)[C@@H]3C[C@](C)(C(=O)O)CC[C@]3(C)CC[C@]12C` [Celastrol], in [3], the Paw swelling result is recorded as “reduce paw swelling a similar amount as Prednisolone”. For the same compound, the Toxicity to myotubes in the series with C2C12 myotubes (10μg/ml, MTT) is listed as 35%. The viability at 48 h in series [4] amounted to 72.1%; in series [6], 83.9%. Also, the “NF-κB nuclear translocation (qualitative)” value in the series on NF-κB p65 is recorded as “appeared to block nuclear translocation; also recorded: reduced the amount of nuclear translocation”. The half-maximal inhibitory concentration (IC50) is 270 nM with NF-κB [5] and around 1 nM in the series with NF-κB [2] (Mus musculus, C2C12, read-out: IC50 in myocytes).
As to `O=C(O[C@@H]1Cc2c(O)cc(O)cc2O[C@@H]1c1cc(O)c(O)c(O)c1)c1cc(O)c(O)c(O)c1` [EGCG, Epigallocatechin gallate], the “Muscle histology, force contractions and creatine kinase leakage” value in series [7] was “improve mdx mouse muscle histology, force contractions and creatine kinase leakage”. Moreover, the “NF-κB inhibition in myotubes (words)” value with NF-κB [1] was “did not inhibit NF-κB”. For the same compound, the IC50 in the series on NF-κB [8] is 12000 nM. Further, in the series with NF-κB [2], the “NF-κB inhibition in myoblasts” value is on record as “did not inhibit NF-κB”; the “NF-κB inhibition in myocytes, myoblasts and myotubes together” value (from here on “NF-κB inhibition in myocytes”) is “mostly ineffective”.
Consider `Cc1ccc(=O)n(-c2ccccc2)c1` [Pirfenidone], for which the “NF-κB inhibition in myotubes (words)” value in the series with NF-κB [1] is on record as “did not inhibit NF-κB”. The Cardiac function result in [9] is recorded as “improve cardiac function”. For the same compound, in the series on NF-κB [2], the “NF-κB inhibition in myoblasts” value is on record as “did not inhibit NF-κB”; the “NF-κB inhibition in myocytes” value is reported as “mostly ineffective”.
With `C[C@]12C=CC(=O)C=C1CC[C@@H]1[C@@H]2[C@@H](O)C[C@@]2(C)[C@H]1CC[C@]2(O)C(=O)CO` [Prednisolone], in the series with NF-κB p65, the “NF-κB nuclear translocation (qualitative)” value is given as “appeared to block nuclear translocation; also recorded: reduced the amount of nuclear translocation”. Moreover, in the series on NF-κB [2] (setting [11]), the inhibition at 0.1 µM came to 51.7 ± 13.6%, the inhibition at 1 µM is 79.2 ± 9.22% and the inhibition at 10 µM was 85.4 ± 4.59%. In addition, in the series on NF-κB [2] (long regime: 24 h pretreatment, 24 h TNF-α), the “Luciferase activity (reduced to)” value worked out at 38%. In the series on NF-κB [2], the “NF-κB inhibition in myocytes” value is given as “effective at inhibiting the NF-κB pathway”. Besides, the “Luciferase activity (reduced to)” value in the series with NF-κB [2] (short regime: 30min pretreatment, 3hr TNF-α) is listed as 49.5%. The viability at 48 h in [6] (C2C12 myoblasts containing an NF-κB luciferase reporter) came out at 78.8%. In addition, the viability at 48 h in the series “in vitro” worked out at 81.6%.
Consider `CC1=C(CO)C(=O)O[C@@H]([C@@H](C)[C@H]2CC[C@H]3[C@@H]4C[C@H]5O[C@]56[C@@H](O)C=CC(=O)[C@]6(C)[C@H]4CC[C@]23C)C1` [Withaferin], for which the “Myotubes % Cell Viability” value in the series with C2C12 myotubes was found to be 72.7%. Further, in the series with NF-κB [2], the “NF-κB inhibition in myocytes” value was “effective at inhibiting NF-κB”. Besides, in the series with NF-κB [10], the Maximal effective dose was 1.0 mg/mL. Moreover, the “Myoblasts % Cell Viability” value in the series with C2C12 myoblasts stood at 61.1%.
As for “Thymosin β4: small actin-sequestering protein that reduces inflammation and promotes healing in multiple tissues”, in the series with NF-κB [1], the “NF-κB inhibition in myotubes (words)” value was “did not inhibit NF-κB”. Also, in the series on NF-κB [2], the “NF-κB inhibition in myoblasts” value was “did not inhibit NF-κB”; the “NF-κB inhibition in myocytes” value was “mostly ineffective”.

Values taken from article PMC2745946 (International immunopharmacology, 2009).
